Values joined by “and” are separate entries in the source; they are usually repeats but may differ in a detail not shown here. Equal entries are not always repeated.
Conditions: Coaxial cylinder method

C=C [ethene]
Conditions | thermal conductivity
285.04 K, 6160 kPa, Fluid (supercritical or subcritical phases) | 0.06936 W/m/K
285.04 K, 6760 kPa, Fluid (supercritical or subcritical phases) | 0.07168 W/m/K
285.04 K, 7250 kPa, Fluid (supercritical or subcritical phases) | 0.07341 W/m/K
285.04 K, 8160 kPa, Fluid (supercritical or subcritical phases) | 0.07598 W/m/K
285.04 K, 9010 kPa, Fluid (supercritical or subcritical phases) | 0.07839 W/m/K
285.04 K, 9690 kPa, Fluid (supercritical or subcritical phases) | 0.0804 W/m/K
285.04 K, 9800 kPa, Fluid (supercritical or subcritical phases) | 0.08072 W/m/K
285.04 K, 9810 kPa, Fluid (supercritical or subcritical phases) | 0.08067 W/m/K
285.04 K, 9830 kPa, Fluid (supercritical or subcritical phases) | 0.0807 W/m/K
285.04 K, 9850 kPa, Fluid (supercritical or subcritical phases) | 0.08058 W/m/K
285.04 K, 9900 kPa, Fluid (supercritical or subcritical phases) | 0.08077 W/m/K
285.04 K, 9920 kPa, Fluid (supercritical or subcritical phases) | 0.08085 W/m/K
285.04 K, 9950 kPa, Fluid (supercritical or subcritical phases) | 0.08076 W/m/K and 0.08065 W/m/K
285.04 K, 10000 kPa, Fluid (supercritical or subcritical phases) | 0.08079 W/m/K
285.04 K, 10180 kPa, Fluid (supercritical or subcritical phases) | 0.08121 W/m/K
285.04 K, 10350 kPa, Fluid (supercritical or subcritical phases) | 0.08166 W/m/K
285.04 K, 10570 kPa, Fluid (supercritical or subcritical phases) | 0.08194 W/m/K
288.24 K, 4580 kPa, Fluid (supercritical or subcritical phases) | 0.03085 W/m/K
288.24 K, 5100 kPa, Fluid (supercritical or subcritical phases) | 0.03767 W/m/K
288.24 K, 5360 kPa, Fluid (supercritical or subcritical phases) | 0.04634 W/m/K
288.24 K, 5510 kPa, Fluid (supercritical or subcritical phases) | 0.05465 W/m/K
288.24 K, 5570 kPa, Fluid (supercritical or subcritical phases) | 0.06007 W/m/K
288.24 K, 5630 kPa, Fluid (supercritical or subcritical phases) | 0.06943 W/m/K
288.24 K, 5680 kPa, Fluid (supercritical or subcritical phases) | 0.07371 W/m/K
288.24 K, 5790 kPa, Fluid (supercritical or subcritical phases) | 0.0746 W/m/K
288.24 K, 5920 kPa, Fluid (supercritical or subcritical phases) | 0.06841 W/m/K
288.24 K, 6000 kPa, Fluid (supercritical or subcritical phases) | 0.06651 W/m/K
288.24 K, 6240 kPa, Fluid (supercritical or subcritical phases) | 0.06542 W/m/K
288.24 K, 6570 kPa, Fluid (supercritical or subcritical phases) | 0.06758 W/m/K
288.24 K, 7140 kPa, Fluid (supercritical or subcritical phases) | 0.06951 W/m/K
294.62 K, 5100 kPa, Fluid (supercritical or subcritical phases) | 0.03346 W/m/K
294.62 K, 5370 kPa, Fluid (supercritical or subcritical phases) | 0.03618 W/m/K
294.62 K, 6200 kPa, Fluid (supercritical or subcritical phases) | 0.05841 W/m/K
294.62 K, 6290 kPa, Fluid (supercritical or subcritical phases) | 0.06125 W/m/K
294.62 K, 6530 kPa, Fluid (supercritical or subcritical phases) | 0.06505 W/m/K
294.62 K, 6690 kPa, Fluid (supercritical or subcritical phases) | 0.066 W/m/K
294.62 K, 6770 kPa, Fluid (supercritical or subcritical phases) | 0.06592 W/m/K
294.62 K, 6870 kPa, Fluid (supercritical or subcritical phases) | 0.06592 W/m/K
294.62 K, 6950 kPa, Fluid (supercritical or subcritical phases) | 0.06591 W/m/K
294.62 K, 7030 kPa, Fluid (supercritical or subcritical phases) | 0.0659 W/m/K
294.62 K, 7130 kPa, Fluid (supercritical or subcritical phases) | 0.06589 W/m/K
294.62 K, 7360 kPa, Fluid (supercritical or subcritical phases) | 0.06665 W/m/K
294.62 K, 7490 kPa, Fluid (supercritical or subcritical phases) | 0.06627 W/m/K
294.62 K, 7670 kPa, Fluid (supercritical or subcritical phases) | 0.06623 W/m/K
294.62 K, 7690 kPa, Fluid (supercritical or subcritical phases) | 0.06625 W/m/K
294.62 K, 8210 kPa, Fluid (supercritical or subcritical phases) | 0.06804 W/m/K
294.62 K, 8570 kPa, Fluid (supercritical or subcritical phases) | 0.06916 W/m/K
294.62 K, 9220 kPa, Fluid (supercritical or subcritical phases) | 0.07111 W/m/K
294.62 K, 9740 kPa, Fluid (supercritical or subcritical phases) | 0.07276 W/m/K
294.62 K, 10280 kPa, Fluid (supercritical or subcritical phases) | 0.07482 W/m/K
294.62 K, 10840 kPa, Fluid (supercritical or subcritical phases) | 0.07574 W/m/K
301.6 K, 1010 kPa, Fluid (supercritical or subcritical phases) | 0.02196 W/m/K
301.6 K, 1900 kPa, Fluid (supercritical or subcritical phases) | 0.02294 W/m/K
301.6 K, 2940 kPa, Fluid (supercritical or subcritical phases) | 0.02469 W/m/K
301.6 K, 3920 kPa, Fluid (supercritical or subcritical phases) | 0.02736 W/m/K
301.6 K, 5010 kPa, Fluid (supercritical or subcritical phases) | 0.03136 W/m/K
301.6 K, 5560 kPa, Fluid (supercritical or subcritical phases) | 0.0359 W/m/K
301.6 K, 5610 kPa, Fluid (supercritical or subcritical phases) | 0.03586 W/m/K
301.6 K, 6120 kPa, Fluid (supercritical or subcritical phases) | 0.0417 W/m/K and 0.04209 W/m/K
301.6 K, 6550 kPa, Fluid (supercritical or subcritical phases) | 0.0488 W/m/K
301.6 K, 6780 kPa, Fluid (supercritical or subcritical phases) | 0.05244 W/m/K
301.6 K, 6930 kPa, Fluid (supercritical or subcritical phases) | 0.05667 W/m/K
301.6 K, 7100 kPa, Fluid (supercritical or subcritical phases) | 0.05988 W/m/K
301.6 K, 7230 kPa, Fluid (supercritical or subcritical phases) | 0.06174 W/m/K
301.6 K, 7400 kPa, Fluid (supercritical or subcritical phases) | 0.06342 W/m/K
301.6 K, 7430 kPa, Fluid (supercritical or subcritical phases) | 0.06371 W/m/K
301.6 K, 7440 kPa, Fluid (supercritical or subcritical phases) | 0.06376 W/m/K
301.6 K, 7460 kPa, Fluid (supercritical or subcritical phases) | 0.06392 W/m/K
301.6 K, 7480 kPa, Fluid (supercritical or subcritical phases) | 0.06395 W/m/K
301.6 K, 7570 kPa, Fluid (supercritical or subcritical phases) | 0.06425 W/m/K
301.6 K, 7680 kPa, Fluid (supercritical or subcritical phases) | 0.06462 W/m/K
301.6 K, 7720 kPa, Fluid (supercritical or subcritical phases) | 0.06482 W/m/K
301.6 K, 7760 kPa, Fluid (supercritical or subcritical phases) | 0.06461 W/m/K
301.6 K, 7800 kPa, Fluid (supercritical or subcritical phases) | 0.06479 W/m/K
301.6 K, 7820 kPa, Fluid (supercritical or subcritical phases) | 0.06483 W/m/K
301.6 K, 7980 kPa, Fluid (supercritical or subcritical phases) | 0.06482 W/m/K
301.6 K, 8360 kPa, Fluid (supercritical or subcritical phases) | 0.0649 W/m/K
301.6 K, 9100 kPa, Fluid (supercritical or subcritical phases) | 0.0668 W/m/K
301.6 K, 10390 kPa, Fluid (supercritical or subcritical phases) | 0.0716 W/m/K
301.6 K, 12800 kPa, Fluid (supercritical or subcritical phases) | 0.07701 W/m/K
301.6 K, 14950 kPa, Fluid (supercritical or subcritical phases) | 0.08151 W/m/K
301.6 K, 18120 kPa, Fluid (supercritical or subcritical phases) | 0.08743 W/m/K
301.6 K, 20700 kPa, Fluid (supercritical or subcritical phases) | 0.09068 W/m/K
301.6 K, 20800 kPa, Fluid (supercritical or subcritical phases) | 0.09075 W/m/K
301.6 K, 25600 kPa, Fluid (supercritical or subcritical phases) | 0.09706 W/m/K
301.6 K, 31800 kPa, Fluid (supercritical or subcritical phases) | 0.1039 W/m/K
301.6 K, 40300 kPa, Fluid (supercritical or subcritical phases) | 0.1138 W/m/K
301.6 K, 45200 kPa, Fluid (supercritical or subcritical phases) | 0.1185 W/m/K
301.6 K, 50400 kPa, Fluid (supercritical or subcritical phases) | 0.1236 W/m/K
301.6 K, 55500 kPa, Fluid (supercritical or subcritical phases) | 0.1283 W/m/K
301.6 K, 59300 kPa, Fluid (supercritical or subcritical phases) | 0.132 W/m/K
301.6 K, 61000 kPa, Fluid (supercritical or subcritical phases) | 0.1337 W/m/K and 0.1336 W/m/K
301.6 K, 62000 kPa, Fluid (supercritical or subcritical phases) | 0.1342 W/m/K
301.6 K, 65000 kPa, Fluid (supercritical or subcritical phases) | 0.1366 W/m/K
301.6 K, 65300 kPa, Fluid (supercritical or subcritical phases) | 0.1372 W/m/K
301.6 K, 65700 kPa, Fluid (supercritical or subcritical phases) | 0.1378 W/m/K
301.6 K, 66000 kPa, Fluid (supercritical or subcritical phases) | 0.1378 W/m/K
301.6 K, 70000 kPa, Fluid (supercritical or subcritical phases) | 0.1414 W/m/K
302.21 K, 101 kPa, Gas | 0.02112 W/m/K
303.1 K, 101 kPa, Gas | 0.0207 W/m/K
425 K, 101 kPa, Gas | 0.0381 W/m/K
425.46 K, 500 kPa, Fluid (supercritical or subcritical phases) | 0.03821 W/m/K
425.46 K, 1000 kPa, Fluid (supercritical or subcritical phases) | 0.03832 W/m/K
425.46 K, 2500 kPa, Fluid (supercritical or subcritical phases) | 0.03937 W/m/K
425.46 K, 5000 kPa, Fluid (supercritical or subcritical phases) | 0.04226 W/m/K
425.46 K, 7300 kPa, Fluid (supercritical or subcritical phases) | 0.04435 W/m/K
425.46 K, 10000 kPa, Fluid (supercritical or subcritical phases) | 0.04845 W/m/K
425.46 K, 12200 kPa, Fluid (supercritical or subcritical phases) | 0.0528 W/m/K
425.46 K, 14600 kPa, Fluid (supercritical or subcritical phases) | 0.05769 W/m/K and 0.05771 W/m/K
425.46 K, 14800 kPa, Fluid (supercritical or subcritical phases) | 0.05814 W/m/K
425.46 K, 20000 kPa, Fluid (supercritical or subcritical phases) | 0.06783 W/m/K
425.46 K, 24900 kPa, Fluid (supercritical or subcritical phases) | 0.07364 W/m/K
425.46 K, 30000 kPa, Fluid (supercritical or subcritical phases) | 0.07726 W/m/K
425.46 K, 40600 kPa, Fluid (supercritical or subcritical phases) | 0.08392 W/m/K
425.46 K, 50500 kPa, Fluid (supercritical or subcritical phases) | 0.0908 W/m/K
425.46 K, 60700 kPa, Fluid (supercritical or subcritical phases) | 0.09875 W/m/K
425.46 K, 70300 kPa, Fluid (supercritical or subcritical phases) | 0.1051 W/m/K
425.46 K, 71800 kPa, Fluid (supercritical or subcritical phases) | 0.1068 W/m/K
425.46 K, 73700 kPa, Fluid (supercritical or subcritical phases) | 0.109 W/m/K
425.46 K, 75000 kPa, Fluid (supercritical or subcritical phases) | 0.1098 W/m/K
425.46 K, 79000 kPa, Fluid (supercritical or subcritical phases) | 0.1119 W/m/K
425.46 K, 81900 kPa, Fluid (supercritical or subcritical phases) | 0.1144 W/m/K
425.46 K, 89500 kPa, Fluid (supercritical or subcritical phases) | 0.1184 W/m/K
425.46 K, 93500 kPa, Fluid (supercritical or subcritical phases) | 0.1214 W/m/K
425.46 K, 97000 kPa, Fluid (supercritical or subcritical phases) | 0.1232 W/m/K
425.46 K, 100000 kPa, Fluid (supercritical or subcritical phases) | 0.1251 W/m/K
425.62 K, 101 kPa, Gas | 0.03809 W/m/K

Reference: the NIST ThermoML archive (doi:10.1016/j.fluid.2017.11.013)
